ChEMBL document CHEMBL3817824, “Synthesis and biological evaluation of new [1,2,4]triazolo[4,3-a]pyridine derivatives as potential c-Met inhibitors” (Bioorg Med Chem, 2016)

Experiments:
[1] = biological target: Serine/threonine-protein kinase N1 (Homo sapiens, UniProt Q16512); assay: Inhibition of PKN1 (unknown origin) incubated for 1 hr by spectrophotometric analysis
[2] = Cytotoxicity against human SNU5 cells assessed as reduction in cell survival incubated for 3 days by cell titre-glo assay; conditions: SNU-5, 72 h
[3] = biological target: Mitogen-activated protein kinase 14 (Homo sapiens, UniProt Q16539); assay: Inhibition of p38alpha (unknown origin) incubated for 1 hr by spectrophotometric analysis
[4] = biological target: Vascular endothelial growth factor receptor 1 (Homo sapiens, UniProt P17948); assay: Inhibition of FLT1 (unknown origin) incubated for 1 hr by spectrophotometric analysis
[5] = biological target: Protein-tyrosine kinase 6 (Homo sapiens, UniProt Q13882); assay: Inhibition of BRK (unknown origin) incubated for 1 hr by spectrophotometric analysis
[6] = biological target: Protein kinase C zeta type (Homo sapiens, UniProt Q05513); assay: Inhibition of PKCzeta (unknown origin) incubated for 1 hr by spectrophotometric analysis
[7] = biological target: Glycogen synthase kinase-3 beta (Homo sapiens, UniProt P49841); assay: Inhibition of GSK3beta (unknown origin) incubated for 1 hr by spectrophotometric analysis
[8] = biological target: Ephrin type-A receptor 1 (Homo sapiens, UniProt P21709); assay: Inhibition of EPHA1 (unknown origin) incubated for 1 hr by spectrophotometric analysis
[9] = biological target: Receptor-type tyrosine-protein kinase FLT3 (Homo sapiens, UniProt P36888); assay: Inhibition of FLT3 (unknown origin) incubated for 1 hr by spectrophotometric analysis
[10] = biological target: cAMP-dependent protein kinase catalytic subunit alpha (Homo sapiens, UniProt P17612); assay: Inhibition of PKACalpha (unknown origin) incubated for 1 hr by spectrophotometric analysis
[11] = biological target: Fibroblast growth factor receptor 1 (Homo sapiens, UniProt P11362); assay: Inhibition of FGFR1 (unknown origin) incubated for 1 hr by spectrophotometric analysis
[12] = biological target: Tyrosine-protein kinase Yes (Homo sapiens, UniProt P07947); assay: Inhibition of YES (unknown origin) incubated for 1 hr by spectrophotometric analysis
[13] = biological target: Mast/stem cell growth factor receptor Kit (Homo sapiens, UniProt P10721); assay: Inhibition of c-Kit (unknown origin) incubated for 1 hr by spectrophotometric analysis
[14] = biological target: Cyclin-dependent kinase 2 (Homo sapiens, UniProt P24941); assay: Inhibition of CDK2 (unknown origin) incubated for 1 hr by spectrophotometric analysis
[15] = biological target: ALK tyrosine kinase receptor (Homo sapiens, UniProt Q9UM73); assay: Inhibition of ALK (unknown origin) incubated for 1 hr by spectrophotometric analysis
[16] = test system: NCI-H1993; assay: Cytotoxicity against human NCI-H1993 cells assessed as reduction in cell survival incubated for 3 days by cell titre-glo assay; assay type: functional, cell-based; conditions: NCI-H1993, 72 h
[17] = biological target: Tyrosine-protein kinase ABL1 (Homo sapiens, UniProt P00519); assay: Inhibition of ABL (unknown origin) incubated for 1 hr by spectrophotometric analysis
[18] = biological target: Tyrosine-protein kinase JAK3 (Homo sapiens, UniProt P52333); assay: Inhibition of JAK3 (unknown origin) incubated for 1 hr by spectrophotometric analysis
[19] = biological target: High affinity nerve growth factor receptor (Homo sapiens, UniProt P04629); assay: Inhibition of TRKA (unknown origin) incubated for 1 hr by spectrophotometric analysis
[20] = biological target: Tyrosine-protein kinase Lck (Homo sapiens, UniProt P06239); assay: Inhibition of LCK (unknown origin) incubated for 1 hr by spectrophotometric analysis
[21] = biological target: Tyrosine-protein kinase BTK (Homo sapiens, UniProt Q06187); assay: Inhibition of BTK (unknown origin) incubated for 1 hr by spectrophotometric analysis
[22] = Cytotoxicity against human MHCC97H cells assessed as reduction in cell survival incubated for 3 days by cell titre-glo assay; assay type: functional, cell-based; conditions: 72 h
[23] = biological target: Fibroblast growth factor receptor 4 (Homo sapiens, UniProt P22455); assay: Inhibition of FGFR4 (unknown origin) incubated for 1 hr by spectrophotometric analysis
[24] = biological target: RAC-alpha serine/threonine-protein kinase (Homo sapiens, UniProt P31749); assay: Inhibition of AKT1 (unknown origin) incubated for 1 hr by spectrophotometric analysis
[25] = biological target: Tyrosine-protein kinase Fyn (Homo sapiens, UniProt P06241); assay: Inhibition of FYN (unknown origin) incubated for 1 hr by spectrophotometric analysis
[26] = Cytotoxicity against human HCCLM3 cells assessed as reduction in cell survival incubated for 3 days by cell titre-glo assay; assay type: functional, cell-based; conditions: HCCLM3, 72 h
[27] = biological target: Epidermal growth factor receptor (Homo sapiens, UniProt P00533); assay: Inhibition of EGFR (unknown origin) incubated for 1 hr by spectrophotometric analysis
[28] = biological target: Serine/threonine-protein kinase N2 (Homo sapiens, UniProt Q16513); assay: Inhibition of PKN2 (unknown origin) incubated for 1 hr by spectrophotometric analysis
[29] = biological target: Insulin receptor (Homo sapiens, UniProt P06213); assay: Inhibition of INSR (unknown origin) incubated for 1 hr by spectrophotometric analysis
[30] = biological target: Aurora kinase A (Homo sapiens, UniProt O14965); assay: Inhibition of Aurora A (unknown origin) incubated for 1 hr by spectrophotometric analysis
[31] = biological target: Non-receptor tyrosine-protein kinase TYK2 (Homo sapiens, UniProt P29597); assay: Inhibition of TYK2 (unknown origin) incubated for 1 hr by spectrophotometric analysis
[32] = biological target: Epidermal growth factor receptor (Homo sapiens, UniProt P00533, T790M); assay: Inhibition of EGFR T790M mutant (unknown origin) incubated for 1 hr by spectrophotometric analysis; assay type: protein assay
[33] = Cytotoxicity against human MHCC97L cells assessed as reduction in cell survival incubated for 3 days by cell titre-glo assay; assay type: functional, cell-based; conditions: 72 h
[34] = test system: A549; assay: Cytotoxicity against human A549 cells assessed as reduction in cell survival incubated for 3 days by cell titre-glo assay; assay type: functional, cell-based; conditions: A549, 72 h
[35] = biological target: Tyrosine-protein kinase SYK (Homo sapiens, UniProt P43405); assay: Inhibition of SYK (unknown origin) incubated for 1 hr by spectrophotometric analysis
[36] = biological target: Mitogen-activated protein kinase 1 (Homo sapiens, UniProt P28482); assay: Inhibition of ERK2 (unknown origin) incubated for 1 hr by spectrophotometric analysis
[37] = biological target: Epidermal growth factor receptor (Homo sapiens, UniProt P00533, L858R); assay: Inhibition of EGFR L858R mutant (unknown origin) incubated for 1 hr by spectrophotometric analysis; assay type: protein assay
[38] = biological target: Tyrosine-protein kinase JAK1 (Homo sapiens, UniProt P23458); assay: Inhibition of JAK1 (unknown origin) incubated for 1 hr by spectrophotometric analysis
[39] = biological target: Proto-oncogene tyrosine-protein kinase receptor Ret (Homo sapiens, UniProt P07949); assay: Inhibition of RET (unknown origin) incubated for 1 hr by spectrophotometric analysis
[40] = test system: NCI-N87; assay: Cytotoxicity against human NCI-N87 cells assessed as reduction in cell survival incubated for 3 days by cell titre-glo assay; assay type: functional, cell-based; conditions: NCI-N87, 72 h
[41] = biological target: Ephrin type-B receptor 2 (Homo sapiens, UniProt P29323); assay: Inhibition of EPHB2 (unknown origin) incubated for 1 hr by spectrophotometric analysis

Measured: IC50

Chain of Tyrosine-protein kinase Fyn (P06241 whole entry): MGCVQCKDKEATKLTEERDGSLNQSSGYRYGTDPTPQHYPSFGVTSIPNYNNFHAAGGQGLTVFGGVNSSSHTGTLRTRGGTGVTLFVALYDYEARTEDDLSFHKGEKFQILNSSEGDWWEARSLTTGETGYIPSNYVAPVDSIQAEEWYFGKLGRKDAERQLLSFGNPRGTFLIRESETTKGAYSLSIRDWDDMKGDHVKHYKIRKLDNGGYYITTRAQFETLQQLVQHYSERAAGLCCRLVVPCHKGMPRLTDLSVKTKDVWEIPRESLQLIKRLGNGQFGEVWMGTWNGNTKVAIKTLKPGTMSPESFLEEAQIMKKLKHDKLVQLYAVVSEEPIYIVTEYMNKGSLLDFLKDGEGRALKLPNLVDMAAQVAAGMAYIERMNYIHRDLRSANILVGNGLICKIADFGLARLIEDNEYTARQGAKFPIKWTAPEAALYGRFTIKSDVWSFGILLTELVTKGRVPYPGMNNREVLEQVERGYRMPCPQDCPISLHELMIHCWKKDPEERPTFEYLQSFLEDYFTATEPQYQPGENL
Chain of Tyrosine-protein kinase Yes (P07947 whole entry): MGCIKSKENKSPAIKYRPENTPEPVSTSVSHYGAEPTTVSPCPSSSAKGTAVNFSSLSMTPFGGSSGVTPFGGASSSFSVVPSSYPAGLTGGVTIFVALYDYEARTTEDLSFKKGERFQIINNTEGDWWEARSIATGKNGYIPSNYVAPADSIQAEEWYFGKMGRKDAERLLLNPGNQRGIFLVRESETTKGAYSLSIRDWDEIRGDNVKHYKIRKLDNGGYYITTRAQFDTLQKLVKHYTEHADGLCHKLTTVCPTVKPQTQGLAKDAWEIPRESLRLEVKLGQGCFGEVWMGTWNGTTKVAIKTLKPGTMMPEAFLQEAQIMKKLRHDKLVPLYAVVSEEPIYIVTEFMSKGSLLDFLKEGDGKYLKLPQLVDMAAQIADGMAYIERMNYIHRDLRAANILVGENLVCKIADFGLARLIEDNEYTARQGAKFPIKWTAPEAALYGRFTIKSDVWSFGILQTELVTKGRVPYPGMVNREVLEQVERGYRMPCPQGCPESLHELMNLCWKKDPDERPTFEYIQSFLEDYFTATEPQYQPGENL
Chain of Proto-oncogene tyrosine-protein kinase receptor Ret (P07949 whole entry): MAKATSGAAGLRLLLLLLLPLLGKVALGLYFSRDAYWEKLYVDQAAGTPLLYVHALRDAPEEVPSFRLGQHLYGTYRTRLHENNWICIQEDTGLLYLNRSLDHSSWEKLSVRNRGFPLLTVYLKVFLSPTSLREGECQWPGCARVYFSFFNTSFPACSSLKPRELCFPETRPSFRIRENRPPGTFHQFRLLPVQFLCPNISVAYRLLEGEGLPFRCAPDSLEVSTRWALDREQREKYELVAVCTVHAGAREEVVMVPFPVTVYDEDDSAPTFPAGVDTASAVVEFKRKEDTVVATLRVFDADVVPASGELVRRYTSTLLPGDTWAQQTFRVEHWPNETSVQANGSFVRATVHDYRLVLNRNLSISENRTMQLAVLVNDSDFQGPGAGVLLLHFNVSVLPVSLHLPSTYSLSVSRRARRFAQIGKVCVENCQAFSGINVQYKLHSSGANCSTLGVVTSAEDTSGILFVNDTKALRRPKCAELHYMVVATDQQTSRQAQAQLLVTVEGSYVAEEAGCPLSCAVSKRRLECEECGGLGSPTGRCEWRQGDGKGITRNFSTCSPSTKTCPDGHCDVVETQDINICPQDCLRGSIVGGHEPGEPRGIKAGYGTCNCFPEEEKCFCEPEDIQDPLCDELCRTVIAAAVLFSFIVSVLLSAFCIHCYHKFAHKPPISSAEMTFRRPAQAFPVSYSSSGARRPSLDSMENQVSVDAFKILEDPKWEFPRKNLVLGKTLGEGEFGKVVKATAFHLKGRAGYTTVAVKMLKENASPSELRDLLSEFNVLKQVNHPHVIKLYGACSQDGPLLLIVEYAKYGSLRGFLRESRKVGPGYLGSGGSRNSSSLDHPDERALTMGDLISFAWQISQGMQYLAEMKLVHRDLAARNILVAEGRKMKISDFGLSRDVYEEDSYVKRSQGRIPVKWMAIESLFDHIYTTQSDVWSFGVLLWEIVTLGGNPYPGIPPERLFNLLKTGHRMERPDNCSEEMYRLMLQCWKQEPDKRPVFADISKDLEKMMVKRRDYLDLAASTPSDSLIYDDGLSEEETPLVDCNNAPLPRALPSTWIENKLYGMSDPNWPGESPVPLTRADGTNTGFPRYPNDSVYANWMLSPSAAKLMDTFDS
Chain of Mast/stem cell growth factor receptor Kit (P10721 whole entry): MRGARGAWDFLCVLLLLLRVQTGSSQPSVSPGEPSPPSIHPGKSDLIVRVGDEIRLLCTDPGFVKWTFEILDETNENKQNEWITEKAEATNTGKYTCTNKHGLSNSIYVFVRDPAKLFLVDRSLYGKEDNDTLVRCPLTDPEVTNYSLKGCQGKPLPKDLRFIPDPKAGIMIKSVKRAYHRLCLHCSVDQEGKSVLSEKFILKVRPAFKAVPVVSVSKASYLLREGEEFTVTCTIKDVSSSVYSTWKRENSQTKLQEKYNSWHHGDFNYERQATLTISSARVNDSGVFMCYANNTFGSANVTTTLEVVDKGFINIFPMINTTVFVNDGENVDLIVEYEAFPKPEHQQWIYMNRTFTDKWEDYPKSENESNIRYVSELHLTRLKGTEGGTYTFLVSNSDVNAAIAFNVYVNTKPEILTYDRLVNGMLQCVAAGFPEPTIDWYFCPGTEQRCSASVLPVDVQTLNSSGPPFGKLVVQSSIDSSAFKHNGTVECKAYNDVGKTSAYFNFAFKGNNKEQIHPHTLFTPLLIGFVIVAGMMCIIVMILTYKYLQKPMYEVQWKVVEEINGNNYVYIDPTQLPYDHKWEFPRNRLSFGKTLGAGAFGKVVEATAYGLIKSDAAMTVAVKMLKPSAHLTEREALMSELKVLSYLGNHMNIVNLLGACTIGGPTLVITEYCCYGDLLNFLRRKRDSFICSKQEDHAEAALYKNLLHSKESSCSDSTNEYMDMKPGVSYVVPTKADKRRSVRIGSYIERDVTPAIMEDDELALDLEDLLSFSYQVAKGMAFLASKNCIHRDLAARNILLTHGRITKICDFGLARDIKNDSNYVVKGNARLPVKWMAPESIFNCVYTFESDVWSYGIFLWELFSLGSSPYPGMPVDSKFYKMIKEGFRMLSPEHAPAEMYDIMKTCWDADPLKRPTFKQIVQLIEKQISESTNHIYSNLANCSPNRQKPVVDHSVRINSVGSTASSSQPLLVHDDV
Chain of Non-receptor tyrosine-protein kinase TYK2 (P29597 whole entry): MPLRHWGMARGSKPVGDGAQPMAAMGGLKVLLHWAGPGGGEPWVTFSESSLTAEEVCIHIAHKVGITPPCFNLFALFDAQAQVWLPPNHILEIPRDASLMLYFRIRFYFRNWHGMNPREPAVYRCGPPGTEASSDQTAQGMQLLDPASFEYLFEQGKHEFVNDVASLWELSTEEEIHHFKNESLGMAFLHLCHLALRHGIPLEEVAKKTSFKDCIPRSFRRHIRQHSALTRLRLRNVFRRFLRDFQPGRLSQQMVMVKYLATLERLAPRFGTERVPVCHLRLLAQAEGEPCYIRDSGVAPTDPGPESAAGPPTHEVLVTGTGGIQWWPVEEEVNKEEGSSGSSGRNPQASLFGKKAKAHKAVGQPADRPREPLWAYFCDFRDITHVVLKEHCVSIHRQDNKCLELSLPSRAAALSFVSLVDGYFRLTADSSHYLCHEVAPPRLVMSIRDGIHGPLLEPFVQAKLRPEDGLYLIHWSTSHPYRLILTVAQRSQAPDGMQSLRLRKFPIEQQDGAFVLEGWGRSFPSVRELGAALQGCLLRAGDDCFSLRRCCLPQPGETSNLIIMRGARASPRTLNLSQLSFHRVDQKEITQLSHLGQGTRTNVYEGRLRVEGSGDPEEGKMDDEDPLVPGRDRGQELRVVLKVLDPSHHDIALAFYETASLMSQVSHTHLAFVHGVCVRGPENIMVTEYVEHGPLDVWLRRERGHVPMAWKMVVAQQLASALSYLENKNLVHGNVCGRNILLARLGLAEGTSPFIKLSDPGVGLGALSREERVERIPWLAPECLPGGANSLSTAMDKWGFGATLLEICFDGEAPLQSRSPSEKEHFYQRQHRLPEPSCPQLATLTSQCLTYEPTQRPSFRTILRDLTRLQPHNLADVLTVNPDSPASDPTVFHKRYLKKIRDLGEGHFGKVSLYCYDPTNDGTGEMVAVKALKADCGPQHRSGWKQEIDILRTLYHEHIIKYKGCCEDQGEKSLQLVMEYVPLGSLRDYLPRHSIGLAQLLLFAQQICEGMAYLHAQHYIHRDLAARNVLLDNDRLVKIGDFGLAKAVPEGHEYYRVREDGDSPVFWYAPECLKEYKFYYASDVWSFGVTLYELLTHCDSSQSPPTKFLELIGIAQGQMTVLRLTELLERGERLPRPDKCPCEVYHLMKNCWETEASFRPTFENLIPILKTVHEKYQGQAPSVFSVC
Chain of Aurora kinase A (O14965 whole entry): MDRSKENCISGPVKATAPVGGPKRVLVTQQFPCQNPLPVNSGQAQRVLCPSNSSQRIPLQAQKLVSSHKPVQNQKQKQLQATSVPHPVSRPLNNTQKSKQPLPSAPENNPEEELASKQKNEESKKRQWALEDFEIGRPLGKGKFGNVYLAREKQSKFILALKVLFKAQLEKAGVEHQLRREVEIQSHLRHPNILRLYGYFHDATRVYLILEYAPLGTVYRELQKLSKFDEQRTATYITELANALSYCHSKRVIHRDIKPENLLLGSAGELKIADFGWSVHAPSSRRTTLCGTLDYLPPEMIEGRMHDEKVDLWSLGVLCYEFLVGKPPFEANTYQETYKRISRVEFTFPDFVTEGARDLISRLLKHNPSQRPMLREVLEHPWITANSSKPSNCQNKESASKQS

CN1C(=O)COc2c1cnc1ccc(Sc3nnc4c(F)cc(-c5cnn(C)c5)cn34)cc21 [DALMELITINIB]
0.033 µM: [26]
16.2 µM: [7]
> 10 µM: [34] | [40]
0.006 µM: [22]
11.2 µM: [25]
0.007 µM: [33]
0.014 µM: [16]
0.002 µM: [2]
> 30 µM: all other assays above
